Where two headings read alike, the source gives them in different places.
Columns and labels:
bladder = test: animal or person; conditions: Rattus norvegicus, po, read-out: Contraction interval
Description: Male SD strain rats (200-300 g) were used as test animals. Each animal was anesthetized by intraperitoneally administering 50 mg/kg Nembutal. The hair on the abdomen, the thigh, and the back of the neck was shaved, followed by disinfection with 70% ethanol. The left femoral artery of the rat was exposed by incising the thigh for the insertion of a catheter into the femoral artery. A catheter filled with physiological saline containing heparin (1000 units/ml) was introduced approximately 2-3 cm into the artery so that its tip resided in the abdominal artery. The distal end of the catheter was exteriorized at the nape of the neck, sealed, and fixed on the skin tightly. A bladder catheter was implanted according to the method of Yaksh, et al., [Am. J. Physiol., vol.251, R1177-1185 (1986)]. The bladder was exposed through a midline abdominal incision. The bladder dome was given a small incision to make a small hole. A catheter filled with physiological saline was placed into the bladder and secured with a silk ligature. The other end of the catheter was exteriorized at the nape of the neck after being passed under the skin using a trocar. The exposed end of the catheter was sealed and fixed on the skin tightly. The abdominal muscles and skin were sutured, and the test animal was recovered from anesthesia.
The rat was weighed 24-48 hours after the operation. Each rat was placed in a Bollman cage (NATSUME SEISAKUSHO), and the test was done under partial restraint. The arterial catheter was connected to a pressure transducer (NIHON KODEN DX-300) used for the measurement of blood pressure. The bladder catheter was connected to a sylinge pump for physiological saline infusion and to a pressure transducer with PE50 tubing and a three-way stop-cock. Intravesical physiological saline infusion (0.05 ml/minute) was started and continued during the test. The changes of blood pressure, heart rate, and intravesical pressure were recorded with a polygraph (NIHON KODEN). The test animal was allowed to equilibration (for ca. 60-120 minutes) until its micturition pattern became constant. At this point, a basal value of each test parameter was recorded, and the rat was compulsorily given a test compound (in 0.3% carboxymethyl cellulose-physiological saline) at a dose of 1 mg/kg (body weight) by oral administration. […] As a control compound, cromakalim was used. The contraction interval, the systemic blood pressure, and the heart rate were measured for 5 hours after the administration of the compound at one-hour intervals and were expressed as the relative values based on the pre-administration values which were regarded as 100.

[1] = test system: detrusor muscle (isolated urinary bladder strips); test: Relaxation of contraction induced by 50 mmol/l KCl in isolated urinary bladder strips (Test Example 1); design: species or system guinea pig (male albino Hartley); conditions: Cavia porcellus, 0.5 h; KCl 50 mmol/l; cumulative, contact time 30 minutes; 50% relaxant of maximum response
Excerpt: (§1) The activity of Compounds (I) as therapeutic agents for pollakiuria and urinary incontinence is described below. In the following Test Examples 1 and 2, IC50 value was defined as the concentration at which a test compound produces 50% relaxant of maximum response of detrusor muscle.
(§2) Male albino Hartley guinea pigs (350-550 g) were used as test animals. Each animal was exsanguinated to death under sodium pentobarbital anesthesia. The lower abdominal cavity was opened and its bladder was positioned. The connective tissue and the fat tissue around the bladder were removed, and the bladder was washed. After bilateral pelvic nerves on the surface of the abdominal side of the bladder were dissected, the bladder was taken out on the entrance of ureter. The bladder was washed with a Krebs-Henseleit buffer [composition (mM): NaCl 118, KCl 4.7, MgSO4 1.2, KH2 PO4 1.2, CaCl2 2.5, NaHCO3 25, and D-glucose 11.1], and then put on a gauze patch soaked in the buffer in a Petri dish. The dome and the trigone of the bladder were cut away. The back of the bladder was cut vertically in the middle with scissors, and the bladder was put flat on the gauze patch. The mucosa of the bladder was removed. The back of the bladder was cut vertically to get 6 strips which are ca. 2.0 mm wide and ca. 10 mm long.
(§3) Each strip was tied at one end to plastic rod and placed in a 20 ml organ bath containing a Krebs-Henseleit solution which was maintained at 37° C. and bubbled vigorously with a gas mixture of 5% CO2 and 95% O2. The pH of the solution was adjusted to about 7.4. The other end of the strip was tied via silk thread to a force displacement transducer (NIHON KODEN TB-611T). The transducer was connected to a polygraph (NIHON KODEN AP-621G), and the changes in tension were recorded on a recorder (YOKOGAWA type 3066). The polygraph was graduated by 0.5 g/cm.
After the tissue was incubated in the buffer for 15 minutes without preloading, tension was added thereto for about one hour. The preloading tension added was 1.5 g and it was relaxed to about 1 g. The strips were allowed to equilibrate until their contractions became constant and tension was adjusted to 1 g. After this equilibrium period, 50 mmol/l KCl (the whole content in the bath) was added, and the tissue was washed 10 minutes later. KCl was added to the tissue at intervals of 30 minutes, followed by washing 10 minutes later, and KCl was applied repeatedly until the developed tension induced by KCl becomes constant. When the tissue was confirmed to contract constantly by the application of KCl and relax to the steady state after washing, 50 mmol/l KCl was applied again. After the tissue reached the steady state and the base line was obtained, a test compound was applied by the cumulative method (half-logarithmic increment). The contact time at each concentration was 30 minutes. The activity of the compound was expressed as the maximum relaxation rate (%) against the tension induced by the agonist.

[2] = test system: detrusor muscle (isolated urinary bladder strips); test: Relaxation of rhythmic contraction induced by 15 mmol/l KCl in isolated urinary bladder strips (Test Example 2); design: species or system guinea pig (male albino Hartley); conditions: Cavia porcellus; KCl 15 mmol/l; cumulative, contact time 15-30 minutes; 50% relaxant of maximum response
Excerpt: as §1, §2, §3
Isolated urinary bladder strips were prepared in the same manner as in Test Example 1, and the tension of the preparation was measured. After the tension of the tissue was adjusted to be a steady state at 1 g, 15 mmol/l KCl was applied. After the rhythmic contraction was confirmed to appear by KCl, the tissue was washed. Then, 15 mmol/l KCl was applied again. After the rhythmic contraction induced by KCl became constant, a test compound was applied by the cumulative method (half-logarithmic increment). The contact time at each concentration was 15-30 minutes. The activity of the compound was expressed as the maximum relaxation rate (%) against the tension induced by the agonist.

| SMILES | response vs control in vivo at 1 mg/kg (bladder; 1 h) | response vs control in vivo at 10 mg/kg (bladder; 1 h) | response vs control in vivo at 1 mg/kg (bladder; 2 h) | response vs control in vivo at 10 mg/kg (bladder; 2 h) | response vs control in vivo at 1 mg/kg (bladder; 3 h) | response vs control in vivo at 10 mg/kg (bladder; 3 h) | response vs control in vivo at 1 mg/kg (bladder; 4 h) | response vs control in vivo at 10 mg/kg (bladder; 4 h) | response vs control in vivo at 1 mg/kg (bladder; 5 h) | response vs control in vivo at 10 mg/kg (bladder; 5 h) | IC50 [1] | IC50 [2] | response vs control in vivo at 0.1 mg/kg (bladder; 1 h) | response vs control in vivo at 0.1 mg/kg (bladder; 2 h) | response vs control in vivo at 0.1 mg/kg (bladder; 3 h) | response vs control in vivo at 0.1 mg/kg (bladder; 4 h) | response vs control in vivo at 0.1 mg/kg (bladder; 5 h) | also measured |
| --- | --- | --- | --- | --- | --- | --- | --- | --- | --- | --- | --- | --- | --- | --- | --- | --- | --- | --- |
| CC(O)(C(=O)Nc1cccc2c1C(=O)c1sccc1CS2(=O)=O)C(F)(F)F (centres unmarked) [Compound 1-1, 5,5-Dioxo-9-(3,3,3-trifluoro-2-hydroxy-2-methylpropanoylamino)-4,10-dihydrothieno[3,2-c][1]benzothiepin-10-one] | 138 ± 15% | 124 ± 4% | 166 ± 16% | 139 ± 9% | 170 ± 6% | 154 ± 14% | 181 ± 16% | 176 ± 13% | 203 ± 21% | 190 ± 15% | > 10 µM | 2.6 µM |  |  |  |  |  |  |
| O=C1c2ccc(NC(=O)C(F)(F)F)cc2S(=O)(=O)Cc2ccsc21 [Compound 3-5, 5,5-Dioxo-7-trifluoroacetylamino-4,10-dihydrothieno[3,2-c][1]benzothiepin-10-one] | 131 ± 12% |  | 152 ± 4% |  | 145 ± 18% |  | 157 ± 13% |  | 158 ± 4% |  | 8.7 µM | 8.3 µM |  |  |  |  |  |  |
| CC(O)(C(=O)Nc1ccc2c(c1)S(=O)(=O)Cc1ccsc1C2=O)C(F)(F)F (centres unmarked) [Compound 1-2, 5,5-Dioxo-7-(3,3,3-trifluoro-2-hydroxy-2-methylpropanoylamino)-4,10-dihydrothieno[3,2-c][1]benzothiepin-10-one] | 116 ± 8% |  | 136 ± 5% |  | 149 ± 9% |  | 143 ± 5% |  | 139 ± 6% |  | > 10 µM | 5.1 µM |  |  |  |  |  |  |
| C[C@](O)(C(=O)Nc1cccc2c1C(=O)c1sccc1CS2(=O)=O)C(F)(F)F [Compound 1-25, (S)-(+)-5,5-Dioxo-9-(3,3,3-trifluoro-2-hydroxy-2-methylpropanoylamino)-4,10-dihydrothieno[3,2-c][1]benzothiepin-10-one] |  | 133 ± 15% |  | 128 ± 10% |  | 149 ± 19% |  | 180 ± 22% |  | 183 ± 14% | 10.5 µM | 2.6 µM | 108 ± 9% | 140 ± 9% | 140 ± 12% | 148 ± 13% | 163 ± 17% | response vs control in vivo at 3 mg/kg (bladder; 1 h): 129 ± 8%; response vs control in vivo at 3 mg/kg (bladder; 2 h): 125 ± 14%; response vs control in vivo at 3 mg/kg (bladder; 3 h): 143 ± 22%; response vs control in vivo at 3 mg/kg (bladder; 4 h): 165 ± 22%; response vs control in vivo at 3 mg/kg (bladder; 5 h): 161 ± 13% |
| C[C@@](O)(C(=O)Nc1cccc2c1C(=O)c1sccc1CS2(=O)=O)C(F)(F)F [Compound 1-26, (R)-(-)-5,5-Dioxo-9-(3,3,3-trifluoro-2-hydroxy-2-methylpropanoylamino)-4,10-dihydrothieno [3,2-c][1]benzothipin-10-one] |  |  |  |  |  |  |  |  |  |  | 6.3 µM | 6.6 µM | 118 ± 8% | 137 ± 7% | 145 ± 7% | 152 ± 8% | 168 ± 7% |  |

From patent US6211227A, “Tricyclic compounds” (Kyowa Hakko Kogyo Co., Ltd., priority 1997, dated 2001)
